The text below walks through data of patent publication US20170231928A1, “SOLID COMPOSITION OF FINGOLIMOD AND PREPARATION THEREOF” (SUNSHINE LAKE PHARMA CO., LTD., priority 2014, published 2017).

The data set is described as follows: Excipient compatibility test: API and diluents, related substances. Format: physicochemical. The protocol:
Some API and excipients mixture were weighed, placed in the vials, added with appropriate amount of purified water (w/w), and then sealed (simulated hot and humid environment) and placed in 60° C. oven. Sampled on the 10th day, and tested the content (%) of the related substances (single impurity and total impurities).

[1] abbreviates: After 10 days (60° C.), water added, sealed.

For `CCCCCCCCc1ccc(CCC(N)(CO)CO)cc1` [API, 2-amino-2-[2-(4-octylphenyl)ethyl]propan-1,3-diol], under “0 day”, the “Related substances RRT = 0.84” value came out at 0.06% and the “Related substances Total impurities” value is listed as 0.06%. Moreover, under setting [1], the “Related substances RRT = 0.84” value amounted to 0.07%, the “Related substances RRT = 1.35” value was found to be 0.03% and the “Related substances Total impurities” value was determined as 0.10%.
